Values of other authors, collected in patent US20170209372A1, “A Method of Preparing Amorphous Solid Dispersion in Submicron Range by Co-Precipitation” (HOVIONE INTERNATIONAL LTD, priority 2014, published 2017).

Row | Log P | SMILES
1 | ~2.6 | NC(=O)N1c2ccccc2C=Cc2ccccc21 [Carbamazepine]
2 | ~5.77 | C(=C\c1ccccc1)/CN1CCN(C(c2ccccc2)c2ccccc2)CC1 [Cinnarizine]
3 | 4.4 | CCC(C)n1ncn(-c2ccc(N3CCN(c4ccc(OCC5COC(Cn6cncn6)(c6ccc(Cl)cc6Cl)O5)cc4)CC3)cc2)c1=O (stereo not drawn) [Itraconazole]
